Series [1] addresses T1, Peroxisome proliferator-activated receptor delta (Homo sapiens, UniProt Q03181).
T1 sequence (Q03181 whole entry): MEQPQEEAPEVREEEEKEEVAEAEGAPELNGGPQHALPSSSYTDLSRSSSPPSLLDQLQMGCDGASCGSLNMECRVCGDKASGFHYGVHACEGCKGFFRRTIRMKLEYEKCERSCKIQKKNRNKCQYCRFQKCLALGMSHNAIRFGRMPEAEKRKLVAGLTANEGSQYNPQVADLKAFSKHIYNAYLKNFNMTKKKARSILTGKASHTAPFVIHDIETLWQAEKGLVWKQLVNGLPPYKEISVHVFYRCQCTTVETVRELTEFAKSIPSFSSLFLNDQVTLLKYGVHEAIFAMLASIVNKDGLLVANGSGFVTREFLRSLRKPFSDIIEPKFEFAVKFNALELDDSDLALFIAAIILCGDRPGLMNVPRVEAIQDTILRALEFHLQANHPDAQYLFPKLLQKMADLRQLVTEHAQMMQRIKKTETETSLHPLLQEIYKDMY

In series [2] the target is T2, Peroxisome proliferator-activated receptor alpha (Homo sapiens) (UniProt Q07869).
T2 sequence (whole entry): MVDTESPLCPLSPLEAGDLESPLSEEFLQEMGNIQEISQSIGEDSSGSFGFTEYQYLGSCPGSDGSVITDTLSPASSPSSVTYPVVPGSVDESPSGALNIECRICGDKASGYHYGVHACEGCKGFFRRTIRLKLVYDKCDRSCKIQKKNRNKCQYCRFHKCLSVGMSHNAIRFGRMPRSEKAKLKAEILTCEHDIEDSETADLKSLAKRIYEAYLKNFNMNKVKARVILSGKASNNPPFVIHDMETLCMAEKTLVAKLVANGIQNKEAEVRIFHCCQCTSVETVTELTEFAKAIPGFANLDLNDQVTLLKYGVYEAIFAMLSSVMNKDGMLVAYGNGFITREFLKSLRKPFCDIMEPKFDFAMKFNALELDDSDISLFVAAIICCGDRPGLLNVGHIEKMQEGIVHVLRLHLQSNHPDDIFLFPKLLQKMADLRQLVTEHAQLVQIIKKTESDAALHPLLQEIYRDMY
In words: Agonist activity at human PPARalpha ligand binding domain expressed in human 293T cells co-transfected with Gal4-DBD by luciferase transactivation assay relative to KRP297. In kind it is cell-based.

Series [3] deals with T3, Peroxisome proliferator-activated receptor alpha (Homo sapiens, UniProt Q07869).
T3 sequence (Q07869 whole entry): T2 sequence (whole entry)
Briefly: Agonist activity at human PPARalpha ligand binding domain expressed in human 293T cells co-transfected with Gal4-DBD by luciferase transactivation assay. It is filed as cell-based. Particulars: read-out: EC50.

Series [4] deals with T1, Peroxisome proliferator-activated receptor delta. This is another data set of the same source.
For series [5], the system named is Mus musculus. In words: Upregulation of PDK4 expression in C57BL/6 mouse at 10 mg/kg, po qd relative to control. In kind it is functional.
Series [6] is described as follows: Oral bioavailability in Balb/c mouse at 10 mg/kg daily. To be noted: in vivo.
Series [7] can be described thus: Cmax in Balb/c mouse at 10 mg/kg, po qd. Particulars: in vivo.
In series [8] the test system is Mus musculus. Briefly: Upregulation of UCP3 expression in C57BL/6 mouse at 10 mg/kg, po qd relative to control. In kind it is functional.
The nature of series [9]: AUC ((0 to 24 hrs)) in Balb/c mouse at 10 mg/kg, po qd. Particulars: plasma.
The nature of series [10]: Half life in Balb/c mouse at 10 mg/kg, po qd. To be noted: in vivo.
Series [11] concerns the target T4, Peroxisome proliferator-activated receptor gamma (Homo sapiens, UniProt P37231).
T4 sequence (P37231 whole entry): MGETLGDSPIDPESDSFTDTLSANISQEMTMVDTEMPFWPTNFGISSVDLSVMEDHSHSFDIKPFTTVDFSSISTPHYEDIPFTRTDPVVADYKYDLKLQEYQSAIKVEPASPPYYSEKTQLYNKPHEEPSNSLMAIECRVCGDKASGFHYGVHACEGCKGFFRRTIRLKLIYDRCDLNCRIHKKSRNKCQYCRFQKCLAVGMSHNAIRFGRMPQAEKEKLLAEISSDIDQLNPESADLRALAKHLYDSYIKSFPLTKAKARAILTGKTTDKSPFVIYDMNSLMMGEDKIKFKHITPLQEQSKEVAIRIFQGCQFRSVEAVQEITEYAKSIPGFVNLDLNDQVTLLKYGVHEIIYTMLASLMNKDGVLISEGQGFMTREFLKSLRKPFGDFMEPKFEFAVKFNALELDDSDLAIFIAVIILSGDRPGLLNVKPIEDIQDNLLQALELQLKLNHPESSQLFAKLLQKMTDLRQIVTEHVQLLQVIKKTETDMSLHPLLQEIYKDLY
In kind it is cell-based, 293T. Particulars: read-out: EC50.

The target in series [12] is Peroxisome proliferator-activated receptor delta (Homo sapiens) (UniProt Q03181). In words: Agonist activity at human PPARdelta by FRET assay.

The results in this text go back to ChEMBL document CHEMBL1153748 (J Med Chem, 2010).

Structures are written as SMILES.

The term EC50 denotes the concentration at which the effect is half-maximal. As usually defined, the Cmax is the highest concentration seen after dosing. A word on the AUC: it is concentration integrated over time. Lower therefore signals low exposure. Broadly, the half-life is the time in which the quantity being followed falls by half. A high value points to slow decline. Consider `Cc1cc(OCc2nc(-c3ccc(OC4CCCC4)cc3)c(-c3ccc(OC(F)(F)F)cc3)o2)ccc1OCC(=O)O`, for which the EC50 in series [1] is 0.012 µM; in series [3] it was 0.91 µM; in [4], 0.004 µM; in [11] it was above 10 µM; in series [12] it was 0.009 µM. For the same compound, the Efficacy in [2] is 56%. Also, the “fold change (FC)” value with Mus musculus [5] was found to be 2.1; with Mus musculus [8], 2.5. The bioavailability in series [6] was 35%. In series [7], this compound had a Cmax of 2.4 µM. In series [9], the AUC at 24 h was determined as 23.3 µM·h. In series [10], this compound showed a half-life of 3.1 h.
As for `Cc1cc(OCc2nc(-c3ccc(OC(C)C)cc3)c(-c3ccc(OC(F)(F)F)cc3)s2)ccc1OCC(=O)O`, the EC50 is 0.01 µM in [1]; above 10 µM in series [3]; 0.007 µM in series [4]; above 10 µM in series [11]; 0.026 µM in series [12]. Besides, the figures for the “fold change (FC)” value in the series on Mus musculus [5] and in the series on Mus musculus [8] were 1.9 and 2.4, respectively. For the same compound, the bioavailability in [6] stood at 88%. The same compound showed a Cmax in [7] of 3.7 µM. In [9], this compound displayed an AUC at 24 h of 54.1 µM·h. In series [10], this compound showed a half-life of 9 h.
Turning to `Cc1cc(OCc2nc(-c3cnc(OC(C)C)nc3)c(-c3ccc(OC(F)(F)F)cc3)s2)ccc1OCC(=O)O`, the EC50 in [1] was 0.014 µM; in series [3], above 10 µM; in [4] it was 0.006 µM; in series [11], above 10 µM; in series [12], 0.01 µM. Besides, the “fold change (FC)” value turned out to be 1.6 in the series on Mus musculus [5] and 1.5 in the series with Mus musculus [8]. Further, the bioavailability in series [6] was determined as 88%. Also, the Cmax in [7] was 3.5 µM. This compound also returned an AUC at 24 h in series [9] of 20.1 µM·h. In addition, the half-life in series [10] was 2.3 h.
`Cc1cc(OCc2nc(-c3ccc(OC(C)C)nc3)c(-c3ccc(OC(F)(F)F)cc3)o2)ccc1OCC(=O)O`: the EC50 in series [1] is 0.014 µM; in series [3], 0.79 µM; in series [4] it was 2.49 µM; in series [11], 70 µM; in series [12], 0.007 µM. In series [2], the Efficacy was 20%. Besides, the “fold change (FC)” value is listed as 1.5 in the series with Mus musculus [5] and 2.5 in the series on Mus musculus [8]. In addition, the bioavailability in series [6] worked out at 144%. Moreover, the Cmax in [7] was found to be 9.1 µM. In series [9], this compound showed an AUC at 24 h of 95.8 µM·h. Moreover, the half-life in [10] was 5.3 h.
With `COc1ccc(-c2nc(COc3ccc(OCC(=O)O)c(C)c3)sc2-c2ccc(OC(F)(F)F)cc2)cn1`, the EC50 is 0.012 µM in series [1]; above 10 µM in [3]; 0.017 µM in [4]; above 10 µM in [11]; 0.09 µM in series [12]. Further, the “fold change (FC)” value was found to be 1.9 with Mus musculus [5] and 2.5 in the series with Mus musculus [8]. Also, the bioavailability in [6] is 140%. The compound further showed a Cmax in series [7] of 17.3 µM. Besides, the AUC at 24 h in series [9] came to 196 µM·h. This compound also had a half-life in series [10] of 4.6 h.
With `COc1ccc(-c2nc(COc3ccc(OCC(=O)O)c(C)c3)oc2-c2ccc(OC(F)(F)F)cc2)cn1`, the EC50 in [1] was 0.01 µM; in [3] it was above 10 µM; in series [4] it was 0.008 µM; in series [11], above 10 µM; in series [12], 0.097 µM. The “fold change (FC)” value with Mus musculus [5] was 1.2; in the series on Mus musculus [8] it was 1.4. Also, in series [6], the bioavailability turned out to be 89%. For the same compound, the Cmax in series [7] was 13.7 µM. For the same compound, the AUC at 24 h in series [9] was determined as 96.8 µM·h. Further, the half-life in series [10] was 2.5 h.
With `CCCc1ccc(-c2oc(COc3ccc(OCC(=O)O)c(C)c3)nc2-c2cnc(OC)nc2)cc1`, the EC50 is 0.01 µM in series [1], 0.009 µM in series [4] and 0.03 µM in [12]. Also, the entries for the “fold change (FC)” value in the series on Mus musculus [5] and in the series with Mus musculus [8] were 2 and 2.5, respectively. Also, in series [6], the bioavailability came out at 41%. Besides, the Cmax in series [7] worked out at 2.2 µM. This compound also returned an AUC at 24 h in series [9] of 6.42 µM·h. The same compound had a half-life in series [10] of 2.7 h.
With `Cc1cc(OCc2nc(-c3ccc(OC(C)C)nc3)c(-c3ccc(OC(F)(F)F)cc3)s2)ccc1OCC(=O)O`, the EC50 in series [1] is 0.012 µM; in [3] it was above 10 µM; in series [4], 0.008 µM; in series [11], above 10 µM; in series [12], 0.013 µM. The “fold change (FC)” value with Mus musculus [5] turned out to be 1.9; in the series with Mus musculus [8] it was 2.9. Besides, the bioavailability in [6] stood at 72%. The Cmax in series [7] turned out to be 4.7 µM. This compound also displayed an AUC at 24 h in [9] of 62.9 µM·h. The compound also gave a half-life in series [10] of 10.8 h.
Consider `Cc1cc(OCc2nc(-c3ccc(N4CCOCC4)cc3)c(-c3ccc(-c4ccccc4)cc3)s2)ccc1OCC(=O)O`, for which the figures for the EC50 in series [1], in series [4] and in [12] were 0.014 µM, 0.018 µM and 0.072 µM, respectively. Besides, the “fold change (FC)” value in the series with Mus musculus [5] is listed as 1.4; with Mus musculus [8], 2.5. Besides, the bioavailability in series [6] turned out to be 30%. This compound also displayed a Cmax in series [7] of 2.7 µM. In addition, the AUC at 24 h in series [9] worked out at 31.9 µM·h. Moreover, the half-life in series [10] was 5.1 h.
In the case of `Cc1cc(OCc2nc(-c3ccc(OC(C)C)cc3)c(-c3ccc(OC(F)(F)F)cc3)o2)ccc1OCC(=O)O`, the EC50 in [1] was 0.013 µM; in series [3] it was 2.6 µM; in [4] it was 0.003 µM; in [11], above 10 µM; in [12] it was 0.009 µM. The same compound yielded an Efficacy in series [2] of 43%. Also, the “fold change (FC)” value was found to be 2.3 in the series with Mus musculus [5] and 2.2 in the series on Mus musculus [8]. The bioavailability in [6] is 129%. In [7], this compound registered a Cmax of 7.8 µM. The compound further had an AUC at 24 h in [9] of 104 µM·h. Besides, the half-life in [10] was 5.1 h.
With `Cc1cc(OCc2nc(-c3ccc(OC4CCCC4)cc3)c(-c3ccc(OC(F)(F)F)cc3)s2)ccc1OCC(=O)O`, the EC50 in [1] is 0.015 µM; in series [3], above 10 µM; in [4], 0.01 µM; in series [11] it was above 10 µM; in series [12], 0.031 µM. The “fold change (FC)” value with Mus musculus [5] worked out at 1.9; in the series with Mus musculus [8] it was 2.8. Further, the bioavailability in series [6] worked out at 19%. Also, the Cmax in series [7] is 1.2 µM. The compound further registered an AUC at 24 h in [9] of 16.1 µM·h. The half-life in series [10] was 7.6 h.
